These are literature values, as cited in patent publication US20090018020A1, “USE OF COMPOUNDS COMPRISING A POLYSACCHARIDE STRUCTURE AS BIOFERTILISER AND PHYTOSANITARY PRODUCTS” (CENTRE NATIONAL DE LA RECHERCHE SCIENTIFIQUE, priority 2002, published 2009).

For this data set the following is noted: literature (Mc Dougall and Fry 1989, 1990).

Consider XLLG, for which the “auxinic or antiauxinic effect” value is listed as “auxinic effect”.
Consider XXLG, for which the “auxinic or antiauxinic effect” value is “auxinic effect”.
